Earlier results in US20150141518A1, “WATER-MISCIBLE STABLE SOLUTION COMPOSITION FOR PHARMACEUTICALLY ACTIVE INGREDIENTS THAT ARE POORLY SOLUBLE IN WATER AND SUSCEPTIBLE TO CHEMICAL DEGRADATION” (Emphascience, Inc., priority 2013, published 2015).

Experiments:
[1] = room temperature
[2] = accelerated at extremes of pH and higher temperatures

## CC(=O)Nc1ccc(O)cc1 [paracetamol]
[1]
  solubility of paracetamol in water: ca. 13 mg/mL
[2]
  overall rate of chemical degradation of paracetamol in solution: first order kinetics
